Experimental data reported in US20090298708A1, “2'-DEOXY-2'-FLUORO-BETA-D-ARABINONUCLEOSIDE 5'-TRIPHOSPHATES AND THEIR USE IN ENZYMATIC NUCLEIC ACID SYNTHESIS” (priority 2006, published 2009).

What was measured:
MMLV-RT = target: T1, MMLV-RT (Moloney murine leukemia virus, UniProt P03355); experiment: Primer extension assay with MMLV-RT; format: biochemical; parameters: key to Incorporation of three 2′F-araTTP / 2′F-araCTP (incorporation efficiency) / Enzymatic activity during primer extension reactions: ++++: excellent (no pausing observed); +++: very good (with slight pausing); ++: Good, full-length products with significant pausing; +: significant pausing, no full-length product but at least one 2′F-araN incorporation detected; conditions: for Enzymatic activity during primer extension reactions: plus dATP, dGTP; for Order of efficiency of incorporation: DNA template PF22 (T/U triphosphates) or PF24 (C triphosphates), three contiguous units; for Incorporation of three 2′F-araTTP / 2′F-araCTP (incorporation efficiency): DNA template PF22 (2′F-araTTP) or PF24 (2′F-araCTP)
T1 construct: Reverse transcriptases (RT): • MMLV-RT (MMLV or MM; source: Fermentas); purchased Fermentas
Excerpt: (§1) Primer extension assays were used to assess the incorporation of 2′F-araNTP on the various DNA templates (Table 1). The DNA primer (PF20) was first radioactively labeled at the 5′-hydroxyl terminus with a radioactive phosphorus probe and the enzyme T4 polynucleotide kinase (T4 PNK) (see Example 1 for General Methods). To assess the incorporation of 2′F-araNTPs, the primer and template were annealed, and the nucleoside 5′-triphosphates added in the presence of enzyme under the conditions specified in Table 2. Time points were obtained by analyzing small aliquots from the reaction mixture through polyacryamide gel electrophoresis (PAGE) and autoradiography.
(§2) Primer extension assays were used to assess the incorporation efficiency of contiguous 2′F-ara(T/C)TPs compared to 2′F-r(U/C)TP on a DNA template (e.g. PF22 or PF24). To this end, a DNA template (e.g. PF22: FIGS. 15, 16, 17A, 18, 21A; PF24: FIGS. 17B, 19, 20, 21B), primer and the appropriate NTPs (e.g. combination of dATP/dCTP/dGTP/ and NTP, where N=dT, 2′F-araT, 2′F-rU, or rU (FIGS. 15, 16, 17A, 18, 21A); or combination of dATP/dGTP/dTTP/ and NTP, where N=dC, 2′F-araC, 2′F-rC, or rC (FIGS. 17B, 19, 20, 21B)), were incubated in the presence one of MMLV-RT, 9N, HIV or DV polymerase. The protocols and conditions are described in Example 2 and Table 2.
(§3) Unless otherwise noticed in the Examples described below, the conditions used in the primer extension assays, such as dNTP concentration, reaction temperatures, concentration of Mg^2+, and reaction buffers (provided by the manufacturers, except for the HIV buffer which was prepared in-house) are shown in Table 2.
(§4) Primer extension assays were used to assess the incorporation of 2′F-araTTP on the DNA template (PF22). The DNA primer (PF20) was first radioactively labeled at the 5′-hydroxyl terminus with a radioactive phosphorus probe and the enzyme T4 polynucleotide kinase (T4 PNK) according to the manufacturer's specifications (MBI Fermentas Life Sciences, Burlington, ON). Incorporation of the ^32P label was accomplished in reaction mixtures consisting of DNA substrate (200 pmol), 2 μl loxreaction buffer (Buffer A for forward reaction: 500 mM Tris-HCl, pH 7.6 at 25° C., 100 mM MgCl2, 50 mM DTT, 1 mM spermidine and 1 mM EDTA), 1 μl T4 PNK enzyme solution (10 U/1 μl in a solution of 20 mM Tris-HCl, pH 7.5, 25 mM KCl, 0.1 mM EDTA, 2 mM DTT and 50% glycerol), 6 μl [γ-^32P]-ATP solution (6000 Ci/mmol, 10 mCi/ml; Amersham Biosciences, Inc.) and autoclaved sterile water to a final volume of 20 μl. The reaction mixture was incubated for about 45-60 min at 37° C., followed by a second incubation for 10 min at 95° C. to heat denature and deactivate the kinase enzyme. The solution was purified according to a standard protocol and the isolated yield of 5′-^32P-DNA following gel extraction averages 50%. The pure labeled samples were kept at −20° C. for future use.
(§5) Usually 2 or 3 folds of cold (unlabeled) DNA primer were combined with the radioactive primer. Then primer to template was mixed together with the final concentration at 85 nM for the primer and 255 nM for the template (i.e. the primer:template=1:3 molar ratio). The primer and template were heated at 95° C. for 5 min and annealed at 4° C. for at least two hours before use. In an Eppendorf tube, the following reagents, 5× or 10× buffer, nucleoside 5′-triphosphates (DATP, dGTP, dCTP, 2′F-araTTP at the same concentrations; see legend of FIG. 2), water, the primer and template mixture, were added together according to pre-calculated reaction volume (20 μL) and concentrations (see reaction conditions in Table 2). Mineral oil (20 μL) was usually used to prevent evaporation. The reaction mixture was incubated at either 37° C. or 55° C. and one of the various enzymes tested was added to initiate the primer extension reactions. […]

HIV-1 RT (recombinant) = target: T2, HIV-1 RT (recombinant) (Human immunodeficiency virus type 1 group M subtype B, UniProt P04585); experiment: Primer extension assay with HIV-1 RT; format: biochemical; parameters: key to Incorporation of three 2′F-araTTP / 2′F-araCTP (incorporation efficiency) / Enzymatic activity during primer extension reactions: ++++: excellent (no pausing observed); +++: very good (with slight pausing); ++: Good, full-length products with significant pausing; +: significant pausing, no full-length product but at least one 2′F-araN incorporation detected; conditions: for Incorporation of three 2′F-araTTP / 2′F-araCTP (incorporation efficiency) / Order of efficiency of incorporation / Enzymatic activity during primer extension reactions: 37° C.; for Incorporation of three 2′F-araTTP / 2′F-araCTP (incorporation efficiency): DNA template PF22 (2′F-araTTP) or PF24 (2′F-araCTP); for Order of efficiency of incorporation: DNA template PF22 (T/U triphosphates) or PF24 (C triphosphates), three contiguous units; for Enzymatic activity during primer extension reactions: plus dATP, dGTP
T2 construct: Reverse transcriptases (RT): • MMLV-RT (MMLV or MM; source: Fermentas); • HIV-1 RT (recombinant); purchased Worthington Biochemical Corp
Excerpt: as §1, §2, §3, §4, §5

Structure (SMILES) | Order of efficiency of incorporation (MMLV-RT; MMLV-RT, 37° C.) | Incorporation of three 2′F-araTTP / 2′F-araCTP (incorporation efficiency) (MMLV-RT; MMLV, 37° C.) | Incorporation of three 2′F-araTTP / 2′F-araCTP (incorporation efficiency) (HIV-1 RT (recombinant)) | Order of efficiency of incorporation (HIV-1 RT (recombinant)) | further results
Nc1ccn([C@@H]2O[C@H](COP(=O)(O)OP(=O)(O)OP(=O)(O)O)[C@@H](O)[C@@H]2F)c(=O)n1 [2′F-araCTP, 1-(2-deoxy-2-fluoro-β-D-arabinofuranosyl)cytosine 5′-triphosphate] | dCTP~2′F-rCTP ≧ 2′F-araCTP > CTP | ++++ | ++++ | dCTP~2′F-rCTP ≧ 2′F-araCTP > CTP | Enzymatic activity during primer extension reactions (MMLV-RT; Example 3, DNA template PF24, 3x 2′F-araCTP, dTTP, MMLV, 37° C.): +++; premature products (MMLV-RT; MMLV-RT, DNA template PF24, after 60 mins, 37° C.): ca. 90%; Enzymatic activity during primer extension reactions (HIV-1 RT (recombinant); Example 3, DNA template PF24, 3x 2′F-araCTP, dTTP): ++++
Cc1cn([C@@H]2O[C@H](COP(=O)(O)OP(=O)(O)OP(=O)(O)O)[C@@H](O)[C@@H]2F)c(=O)[nH]c1=O [2′F-araTTP, 1-(2-deoxy-2-fluoro-β-D-arabino-furanosyl)thymine 5′-triphosphate] | dTTP > 2′F-araTTP > 2′F-rUTP > UTP | +++ | ++++ | dTTP > 2′F-araTTP > 2′F-rUTP > UTP | Enzymatic activity during primer extension reactions (MMLV-RT; Example 2, DNA template PF22, 3x 2′F-araTTP, dCTP, MMLV, 37° C.): +++; substrate property for MMLV (second incorporations of modified triphosphates) (MMLV-RT; MMLV, DNA template PF22, compared to 2′F-rUTP and rUTP): best substrate; substrate property for HIV RT (HIV-1 RT (recombinant); DNA template PF22, compared to 2′F-rUTP and rUTP): excellent substrate; Enzymatic activity during primer extension reactions (HIV-1 RT (recombinant); Example 2, DNA template PF22, 3x 2′F-araTTP, dCTP): ++++
Nc1ccn([C@@H]2O[C@H](COP(=O)(O)OP(=O)(O)OP(=O)(O)O)[C@@H](O)[C@H]2F)c(=O)n1 [2′F-rCTP, 1-(2-deoxy-2-fluoro-β-D-ribofuranosyl) cytosine 5′-triphosphate, reference compound] | dCTP~2′F-rCTP ≧ 2′F-araCTP > CTP | – | – | dCTP~2′F-rCTP ≧ 2′F-araCTP > CTP | full-length product (MMLV-RT; MMLV-RT, DNA template PF24, 37° C.): ~100%
O=c1ccn([C@@H]2O[C@H](COP(=O)(O)OP(=O)(O)OP(=O)(O)O)[C@@H](O)[C@H]2F)c(=O)[nH]1 [2′F-rUTP, 1-(2-deoxy-2-fluoro-β-D-ribo-furanosyl)uracil 5′-triphosphate, reference compound] | dTTP > 2′F-araTTP > 2′F-rUTP > UTP | – | – | dTTP > 2′F-araTTP > 2′F-rUTP > UTP | –
Nc1ccn([C@H]2C[C@H](O)[C@@H](COP(=O)(O)OP(=O)(O)OP(=O)(O)O)O2)c(=O)n1 [dCTP] | dCTP~2′F-rCTP ≧ 2′F-araCTP > CTP | – | – | dCTP~2′F-rCTP ≧ 2′F-araCTP > CTP | –
Cc1cn([C@H]2C[C@H](O)[C@@H](COP(=O)(O)OP(=O)(O)OP(=O)(O)O)O2)c(=O)[nH]c1=O [dTTP, reference compound] | dTTP > 2′F-araTTP > 2′F-rUTP > UTP | – | – | dTTP > 2′F-araTTP > 2′F-rUTP > UTP | –
